Assay results taken from US10683297B2 (Sunshine Lake Pharma Co., Ltd., priority 2017, dated 2020).

Key:
[1] = Compound stability in rat liver microsomes; type: in vitro ADME; details: for CLint scaled at 5 μM: liver microsomes, pH 7.4, in vivo CLint extrapolated from rat liver microsome incubation; for half-life at 5 μM: rat liver microsomes 0.5 mg protein/mL, compound 5 μM, NADPH 1.0 mM, pH 7.4, 37° C., read-out: Rat T1/2
Experimental: (§1) The LC/MS/MS system used in the analysis consists of an Agilent 1200 Series vacuum degasser, binary pump, well-plate autosampler, thermostatted column compartment, the Agilent G6430 Triple Quadrupole Mass Spectrometer with an electrosprayionization (ESI) source. Quantitative analysis was carried out using MRM mode. The parameters for MRM transitions are in the Table A.
(§2) An Agilent XDB-C18, 2.1×30 mm, 3.5 μM column was used for the analysis. 5 μL of the samples were injected. Analysis condition: The mobile phase was 0.1% formic acid in water (A) and 0.1% formic acid in methanol (B). The flow rate was 0.4 mL/min. And the gradient of Mobile phase was in the Table B.
(§3) Alternatively, an Agilent 6330 series LC/MS/MS spectrometer equipped with G1312A binary pumps, a G1367A autosampler and a G1314C UV detector were used in the analysis. An ESI source was used on the LC/MS/MS spectrometer. The analysis was done in positive ion mode as appropriate and the MRM transition for each analyte was optimized using standard solution. A Capcell MP-C18 100×4.6 mm I.D., 5 uM column (Phenomenex, Torrance, Calif., USA) was used during the analysis. The mobile phase was 5 mM ammonia acetate, 0.1% MeOH in water (A): 5 mM ammonia acetate, 0.1% MeOH in acetonitrile (B) (70/30, v/v). The flow rate was 0.6 mL/min. Column was maintained at ambient temperature. 20 μL of the samples were injected.
(§4) Human or rat liver microsomes incubations were conducted in duplicate in polypropylene tubes. The typical incubation mixtures consisted of human or rat liver microsomes (0.5 mg protein/mL), compounds of interest (5 μM) and NADPH (1.0 mM) in a total volume of 200 μL potassium phosphate buffer (PBS, 100 mM, pH 7.4). Compounds were dissolved in DMSO and diluted with PBS such that the final concentration of DMSO was 0.05%. The enzymatic reactions were commenced with the addition of […] after a 3-min preincubation and incubated in a water bath open to the air at 37° C. Reactions were terminated at various time points (0, 5, 10, 15, 30, 60 min) by adding equal volume of ice-cold acetonitrile. The samples were stored at […] until LC/MS/MS assays.
(§5) The concentrations of compounds in the incubation mixtures of human or rat liver microsomes were determined by a LC/MS/MS method. The ranges of the linearity in the concentration range were determined for each tested compounds.
(§6) A parallel incubation was performed using denatured microsomes as the negative control, and reactions were terminated at various time points (0, 15, 60 min) after incubation at 37° C.
(§7) Dextromethorphan (70 μM) was selected as the positive control, and reactions were terminated at various time points (0, 5, 10, 15, 30, 60 min) after incubation at 37° C. Both positive and negative control samples were included in each assay to ensure the integrity of the microsomal incubation system.
(§8) The concentrations of compounds in human or rat liver microsome incubations were plotted as a percentage of the relevant zero time point control for each reaction. The in vivo CLint were extrapolated (ref.: Naritomi, Y.; Terashita, S.; Kimura, S.; Suzuki, A.; Kagayama, A.; and Sugiyama, Y.; Prediction of human hepatic clearance from in vivo animal experiments and in vitro metabolic studies with liver microsomes from animals and humans. Drug Metab. Dispos., 2001, 29: 1316-1324).

[2] = Pharmacokinetics after intravenous and oral administration in rats; type: in vivo; details: for Clearance (CL) after iv dosing / AUC(0-t) / half-life / Vd: dose 1 mg/kg (Ex. 9: 0.6, Ex. 18: 0.5, Ex. 50: 0.96 mg/kg), iv dosing; for AUC(0-t) / half-life / Vd / bioavailability: rat, plasma; for Vd: read-out: Vss; for bioavailability: oral (generally 5 or 10 mg/kg) versus iv dosing, read-out: F (oral bioavailability)
Experimental: as §1, §2, §3
The compounds disclosed herein are assessed in pharmacokinetic studies in mice, rats, dogs or monkeys. The compounds are administered as a water solution, 2% HPMC+1% TWEEN®80 in water solution, 5% DMSO+5% solutol in saline, 4% MC suspension or capsule. For the intravenous administration, the animals are generally given at about 0.5, 0.6, 1 or 2 mg/kg dose. For the oral (p.o.) dosing, mice and rats are generally given 5 or 10 mg/kg dose, and dogs and monkeys are generally given 10 mg/kg dose. The blood samples (0.3 mL) are drawn at 0.25, 0.5, 1.0, 2.0, 3.0, 4.0, 6.0, 8.0, 12 and 24 h time points or 0.083, 0.25, 0.5, 1.0, 2.0, 4.0, 6.0, 8.0 and 24 h time points and centrifuged at 3,000 or 4000 rpm for 2 to 10 min. The plasma solutions are collected, and stored at […] until analyzed by LC/MS/MS as described above.

[3] = Compound stability in human liver microsomes; type: in vitro ADME; details: for half-life at 5 μM: human liver microsomes 0.5 mg protein/mL, compound 5 μM, NADPH 1.0 mM, pH 7.4, 37° C., read-out: Human T1/2; for CLint scaled at 5 μM: liver microsomes, pH 7.4, in vivo CLint extrapolated from human liver microsome incubation
Experimental: as §1, §2, §3, §4, §5, §6, §7, §8

SMILES | CLint scaled at 5 μM [1] [mL/min/kg] | half-life at 5 μM [1] [min] | Clearance (CL) after iv dosing [2] [L/h/kg] | AUC(0-t) [2] [ng·h/mL] | half-life [2] [min] | Vd [2] [L/kg] | bioavailability [2] [%] | half-life at 5 μM [3] [min] | CLint scaled at 5 μM [3] [mL/min/kg]
Cc1nc2ccc(Nc3ncc(Cl)c(NC4CCN(c5ccc(C#N)nn5)CC4)n3)cn2n1 [Example 34, 6-(4-((5-chloro-2-((2-methyl-[1,2,4]triazolo[1,5-a]pyridin-6-yl)amino)pyrimidin-4-yl)amino)piperidin-1-yl)pyridazine-3-carbonitrile] | 87.5 | 28.4 | 0.63 | 1560 | 72 | 1.53 | 46.9 | 125 | 13.9
CCC1CN(c2ccc(C#N)nn2)CCC1Nc1nc(Nc2ccn3c(C4CC4)cnc3c2)ncc1Cl (stereo not shown) [Example 15, 6-(4-((5-chloro-2-((3-cyclopropylimidazo[1,2-a]pyridin-7-yl)amino)pyrimidin-4-yl)amino)-3-ethylpiperidin-1-yl)pyridazine-3-carbonitrile] | 834 | 2.98 |  |  |  |  |  | 22 | 78.9
CCC1CN(c2ccc(C#N)cn2)CCC1Nc1nc(Nc2ccn3c(C)nnc3c2)ncc1Cl (stereo not shown) [Example 17, 6-(4-((5-chloro-2-((3-methyl-[1,2,4]triazolo[4,3-a]pyridin-7-yl)amino)pyrimidin-4-yl)amino)-3-ethylpiperidin-1-yl)nicotinonitrile] | 302 | 8.22 | 1.07 | 949 | 36 | 0.67 | 48.2 | 44 | 39.5
Cc1nc2cc(Nc3ncc(Cl)c(NC4CCN(c5ccc(C#N)nn5)CC4)n3)ccc2n1C [Example 49, 6-(4-((5-chloro-2-((1,2-dimethyl-1H-benzo[d]imidazol-5-yl)amino)pyrimidin-4-yl)amino)piperidin-1-yl)pyridazine-3-carbonitrile] | 76.5 | 32.5 | 0.65 | 1540 | 36 | 0.56 | 79.6 | 52.7 | 33
Cc1cn2ncc(Nc3ncc(Cl)c(NC4CCN(c5ccc(C#N)cn5)CC4)n3)cc2n1 [Example 37, 6-(4-((5-chloro-2-((2-methylimidazo[1,2-b]pyridazin-7-yl)amino)pyrimidin-4-yl)amino)piperidin-1-yl)nicotinonitrile] |  |  | 0.69 | 1460 | 55.8 | 0.83 | 47.8 |  | 
CCC1CN(c2ccc(C#N)cn2)CCC1Nc1nc(Nc2ccn3cnnc3c2)ncc1Cl (stereo not shown) [Example 5, 6-(4-((2-([1,2,4]triazolo[4,3-a]pyridin-7-ylamino)-5-chloropyrimidin-4-yl)amino)-3-ethylpiperidin-1-yl)nicotinonitrile] |  |  | 0.43 | 2340 | 265 | 0.56 | 42.7 |  | 
CCC1CN(c2ccc(C#N)nn2)CCC1Nc1nc(Nc2ccn3cnnc3c2)ncc1Cl (stereo not shown) [Example 7, 6-(4-((2-([1,2,4]triazolo[4,3-a]pyridin-7-ylamino)-5-chloropyrimidin-4-yl)amino)-3-ethylpiperidin-1-yl)pyridazine-3-carbonitrile] | 112 | 22.2 |  |  |  |  |  | 148 | 11.7
CCC1CN(c2ccc(C#N)cn2)CCC1Nc1nc(Nc2ccn3ccnc3c2)ncc1Cl (stereo not shown) [Example 6, 6-(4-((5-chloro-2-(imidazo[1,2-a]pyridin-7-ylamino)pyrimidin-4-yl)amino)-3-ethylpiperidin-1-yl)nicotinonitrile] |  |  | 0.38 | 2690 | 283 | 0.76 | 71 |  | 
CCC1CN(c2ccc(C#N)nn2)CCC1N(C)c1nc(Nc2ccn3c(C)cnc3c2)ncc1Cl (stereo not shown) [Example 11, 6-(4-((5-chloro-2-((3-methylimidazo[1,2-a]pyridin-7-yl)amino)pyrimidin-4-yl)(methyl)amino)-3-ethylpiperidin-1-yl)pyridazine-3-carbonitrile] | 0.34 | 5050 |  |  |  |  |  | 330 | 5.26
Cc1cnc2cc(Nc3ncc(Cl)c(NC4CCN(c5ccc(C#N)cn5)CC4)n3)ccn12 [Example 23, 6-(4-((5-chloro-2-((3-methylimidazo[1,2-a]pyridin-7-yl)amino)pyrimidin-4-yl)amino)piperidin-1-yl)nicotinonitrile] |  |  | 1.18 | 844 | 63 | 1.68 | 63 |  | 
CCC1CN(c2ccc(C#N)cn2)CCC1Nc1nc(Nc2ccn3c(C(C)(C)O)nnc3c2)ncc1Cl (stereo not shown) [Example 41] | 57.9 | 42.9 |  |  |  |  |  | 198 | 8.8
Cc1cn2c(C)cnc2cc1Nc1ncc(Cl)c(NC2CCN(c3ccc(C#N)nn3)CC2)n1 [Example 22, 6-(4-((5-chloro-2-((3,6-dimethylimidazo[1,2-a]pyridin-7-yl)amino)pyrimidin-4-yl)amino)piperidin-1-yl)pyridazine-3-carbonitrile] | 11.7 | 213 |  |  |  |  |  | 388 | 4.5
N#Cc1ccc(N2CCC(Nc3nc(Nc4cnn5ccnc5c4)ncc3Cl)CC2)nc1 [Example 18, 6-(4-((5-chloro-2-(imidazo[1,2-b]pyridazin-7-ylamino)pyrimidin-4-yl)amino)piperidin-1-yl)nicotinonitrile] |  |  | 0.79 | 638 | 35.4 | 0.5 | 79.4 |  | 
CC(O)Cn1cnc2ncc(Nc3ncc(Cl)c(NC4CCN(c5ccc(C#N)cn5)CC4)n3)cc21 (stereo not shown) [Example 51, 6-(4-((5-chloro-2-((1-(2-hydroxypropyl)-1H-imidazo[4,5-b]pyridin-6-yl)amino)pyrimidin-4-yl)amino)piperidin-1-yl)nicotinonitrile] | 73.1 | 34 |  |  |  |  |  | 31.6 | 54.9
